The supplement of paper PMC5908809

How the values were obtained:
[1] = tested on: normal NK cells expanded with K562-aAPC; assay: drug sensitivity score (DSS) (DSS units); higher = more sensitive; extreme values may be limits of the assay; conditions: 72 h; IL-2 2.5 ng/mL
Experimental: (§1)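 Drug sensitivity and resistance testing on K562-aAPC-expanded normal NK cells: 5 concentrations (10-fold steps over a 10,000-fold range), 72 h at 37 °C, viability by CellTiter-Glo normalised to DMSO and benzethonium chloride controls; DSS from the fitted curve.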

[2] = tested on: NKL (IL-2 2.5 ng/mL); assay: percent inhibition of viability; higher = more inhibition; conditions: 72 h
[3] = tested on: NK-92 (IL-2 2.5 ng/mL); assay: as above; conditions: 72 h
[4] = tested on: DERL-7 (IL-2 2.5 ng/mL); assay: as above; conditions: 72 h
[5] = tested on: normal primary NK cells, pool 1 (3 donors) (IL-2 2.5 ng/mL); assay: as above; conditions: 72 h
[6] = tested on: YT (IL-2 2.5 ng/mL); assay: as above; conditions: 72 h
[7] = tested on: SNK-6 (IL-2 2.5 ng/mL); assay: as above; conditions: 72 h
[8] = tested on: KAI3 (IL-2 2.5 ng/mL); assay: as above; conditions: 72 h
[9] = tested on: normal primary NK cells, pool 1 (3 donors), resting (IL-2 0 ng/mL); assay: as above; conditions: 72 h
[10] = tested on: normal primary NK cells, pool 3 (3 donors) (IL-2 2.5 ng/mL); assay: as above; conditions: 72 h
[11] = tested on: IMC-1 (IL-2 20 ng/mL); assay: as above; conditions: 72 h
[12] = tested on: NK-YS (IL-2 2.5 ng/mL); assay: as above; conditions: 72 h
[13] = tested on: KHYG-1 (IL-2 2.5 ng/mL); assay: as above; conditions: 72 h
[14] = tested on: normal primary NK cells, pool 2 (3 donors) (IL-2 2.5 ng/mL); assay: as above; conditions: 72 h
[15] = tested on: normal NK cells expanded with K562-aAPC; assay: as above; conditions: 72 h, IL-2 2.5 ng/mL
Experimental: as §1

[16] = tested on: NKL (IL-2 2.5 ng/mL); assay: drug sensitivity score (DSS) (DSS units); higher = more sensitive; extreme values may be limits of the assay; conditions: 72 h
[17] = tested on: NK-92 (IL-2 2.5 ng/mL); assay: as above; conditions: 72 h
[18] = tested on: DERL-7 (IL-2 2.5 ng/mL); assay: as above; conditions: 72 h
[19] = tested on: normal primary NK cells, pool 1 (3 donors) (IL-2 2.5 ng/mL); assay: as above; conditions: 72 h
[20] = tested on: YT (IL-2 2.5 ng/mL); assay: as above; conditions: 72 h
[21] = tested on: SNK-6 (IL-2 2.5 ng/mL); assay: as above; conditions: 72 h
[22] = tested on: KAI3 (IL-2 2.5 ng/mL); assay: as above; conditions: 72 h
[23] = tested on: normal primary NK cells, pool 1 (3 donors), resting (IL-2 0 ng/mL); assay: as above; conditions: 72 h
[24] = tested on: normal primary NK cells, pool 3 (3 donors) (IL-2 2.5 ng/mL); assay: as above; conditions: 72 h
[25] = tested on: IMC-1 (IL-2 20 ng/mL); assay: as above; conditions: 72 h
[26] = tested on: NK-YS (IL-2 2.5 ng/mL); assay: as above; conditions: 72 h
[27] = tested on: KHYG-1 (IL-2 2.5 ng/mL); assay: as above; conditions: 72 h
[28] = tested on: normal primary NK cells, pool 2 (3 donors) (IL-2 2.5 ng/mL); assay: as above; conditions: 72 h

Cc1cn(-c2cc(NC(=O)c3ccc(C)c(Nc4nccc(-c5cccnc5)n4)c3)cc(C(F)(F)F)c2)cn1 [Nilotinib] (max concentration tested 10000 nM)
Conditions	drug sensitivity score
[1]	2.11
[16]	6.35
[17]	7.73
[18]	0
[19]	0
[20]	2.28
[21]	6.76
[22]	0.95
[23]	0
[24]	0
[25]	0
[26]	1.36
[27]	0.72
[28]	0

percent inhibition of viability [%]
Conditions	1 nM	10 nM	100 nM	1000 nM	10000 nM
[2]	-17.5	-6.91	-4.77	29.9	50.9
[3]	12.4	5.92	27.1	23.8	33.9
[4]	-4.23	4.31	-3.59	-5.83	-5.46
[5]	3.44	-14	-6.22	-13.6	-12.9
[6]	1.35	1.76	8.97	16.1	18.2
[7]	11.9	22.4	9.61	18.6	37.7
[8]	-3.54	-7.12	4.99	7.48	20
[9]	7.74	-12.7	-5.01	-11.6	-17.4
[10]	-13.2	-5.87	-1.78	-9.25	-1.3
[11]	-4.03	-1.9	2.58	0.7	-38.1
[12]	-1.07	-0.64	9.04	11.3	15.7
[13]	-0.89	0.67	11.9	5.38	17.9
[14]	-15.7	-12.8	-10.3	-4.04	1.26
[15]	-1.85	-4.37	-3.71	7.45	26.5

CO[C@H]1/C=C\C=C(/C)C(=O)NC2=CC(=O)C(NCCN(C)C)=C(C[C@@H](C)C[C@H](OC)[C@H](O)[C@@H](C)/C=C(\C)[C@@H]1OC(N)=O)C2=O [Alvespimycin] (max concentration tested 1000 nM)
Conditions	drug sensitivity score
[1]	13.3
[16]	16.4
[17]	13.3
[18]	15.1
[19]	15.5
[20]	9.86
[21]	19.9
[22]	15.7
[23]	7.28
[24]	10.3
[25]	8.22
[26]	19.2
[27]	12.2
[28]	14.8

percent inhibition of viability [%]
Conditions	0.1 nM	1 nM	10 nM	100 nM	1000 nM
[2]	-9.27	5.22	1.11	89.3	90.7
[3]	-5.39	0.79	7.9	62.4	105
[4]	-2.47	-2.74	9.85	73.2	101
[5]	9.22	-0.64	16.4	73	87
[6]	-0.99	6.65	4.58	35.5	97
[7]	11.2	9.82	13.6	97.6	91.2
[8]	3.95	3.1	8.75	78.1	104
[9]	9.61	-5.61	24.6	26.1	42
[10]	-14.3	-9.11	6.58	46.3	85.2
[11]	-5.23	4.85	1.66	16.1	101
[12]	-5	5.02	9.34	96.8	105
[13]	-3.99	2.16	2.52	55.2	107
[14]	-14.3	-3.64	14.4	68.9	82.6
[15]	-6.1	-4.9	-1.57	67.3	100

CN1CCN(C2CCN(C(=O)Nc3cc(Oc4ccc(NC(=O)C5(C(=O)Nc6ccc(F)cc6)CC5)c(F)c4)ccn3)CC2)CC1 [Golvatinib] (max concentration tested 2500 nM)
Conditions	drug sensitivity score
[1]	1.59
[16]	1.26
[17]	4.41
[18]	0.2
[19]	0.66
[20]	1.11
[21]	0
[22]	1.75
[23]	1.23
[24]	0
[25]	0
[26]	0.08
[27]	3.05
[28]	0

percent inhibition of viability [%]
Conditions	0.25 nM	2.5 nM	25 nM	250 nM	2500 nM
[2]	-12.1	-3.62	2.15	8.61	20.8
[3]	-11.7	-1.86	-7.52	14.7	44.5
[4]	-1.96	-0.71	1.22	-0.87	15.2
[5]	-2.39	15	8.72	9.1	11.9
[6]	-6.16	-1.34	-3.26	2.58	22.1
[7]	-15.4	-12	-10.5	-8.86	2.23
[8]	-7	-3.9	0.53	6.28	24
[9]	-3.44	12.3	5.91	13.5	11.9
[10]	-5.97	4.22	1.77	0.21	-2.7
[11]	-9.45	-2.35	-2.39	5.73	3.69
[12]	-10.5	-6.07	-5.82	0.77	12.1
[13]	-11.8	-6.81	-7.1	2.14	52.1
[14]	-0.98	2.77	11.2	-2.79	3.25
[15]	-2.77	-6.95	-4.34	5.19	23.6
